In the assay the target is T1, partially purified rat brain farnesyl protein transferase (FPT) (Rattus norvegicus, UniProt Q02293+Q04631).
T1 construct: partially purified rat brain farnesyl protein transferase (FPT); from tissue; host or cells: rat brain
The experiment in a line: In vitro enzyme assay: inhibition of Ras-CVLS farnesylation by farnesyl protein transferase. In kind it is biochemical. On the procedure:
1. In vitro enzyme assays: FPT IC50 (inhibition of farnesyl protein transferase, in vitro enzyme assay) are determined by the methods disclosed in WO/10515 or WO 95110516.
Usually IC50 stands for the concentration that gives 50% inhibition. A high value points to a need for much substance. For `COc1cc(C)cc2c1C(=C1CCN(C(=O)Cc3cc[n+]([O-])cc3)CC1)c1ncc(Br)cc1CC2` [Example 8, (+,−)-4-(3-bromo-10-methoxy-8-methyl-5,6-dihydro-11H-benzo[5,6]cyclohepta[1,2-b]pyridin-11-ylidene)-1-(4-pyridinylacetyl)piperidine N1-oxide], the half-maximal inhibitory concentration (IC50) stood at 30 nM.

As to `C=Cc1cnc2c(c1)CCc1cc(C)cc(OC)c1C2C1CCN(C(=O)Cc2cc[n+]([O-])cc2)CC1` (centres unmarked) [Example 27, 4-(3-Ethenyl-6,11-dihydro-10-methoxy-8-methyl-5H-benzo[5,6]cyclohepta[1,2-b]pyridin-11-yl)-1-(4-pyridinylacetyl)piperidine N1-Oxide], half-maximal inhibition (IC50) was put at 59 nM.

Regarding `C=Cc1cnc2c(c1)CCc1cc(C)cc(OC)c1C2C1CCN(S(C)(=O)=O)CC1` (centres unmarked) [Example 28, 4-(3-Ethenyl-6,11-dihydro-10-methoxy-8-methyl-5H-benzo[5,6]cyclohepta[1,2-b]pyridin-11-yl)-1-(methylsulfonyl)piperidine], half-maximal inhibition (IC50) was put at 132 nM. This IC50 is about 2.2-fold higher than that of the compound before.

Turning to `CCc1cnc2c(c1)CCc1cc(C)cc(OC)c1C2C1CCN(C(=O)Cc2cc[n+]([O-])cc2)CC1` (centres unmarked) [Example 29, 4-(3-Ethyl-6,11-dihydro-10-methoxy-8-methyl-5H-5 benzo[5,6]cyclohepta[1,2-b]pyridin-11-yl)-1-(4-pyridinylacetyl)piperidine, N1-Oxide], the IC50 amounted to 74 nM.

On to `Cc1cc(Br)c2c(c1)CCc1cc(Br)cnc1C2=C1CCN(C(=O)Cc2cc[n+]([O-])cc2)CC1` [Example 37, -(3-Bromo-5,6-dihydro-10-bromo-8-methyl-11H-benzo[5,6]cyclohepta[1,2-b]pyridin-11-ylidene)-1-(4-pyridinylacetyl)piperidine N1-Oxide], for which half-maximal inhibition (IC50) was put at 5.4 nM.

Values taken from US6440989B2, “Phenyl-substituted tricyclic inhibitors of farnesyl-protein transferase” (Schering Corporation, priority 1997, dated 2002).
